“And” between values parts separate entries of the source, which are not always exact repeats. Equal entries are not always repeated.
What was measured:
[1] = test system: T20-resistant virus V38A N42D; type: cell-based, HIV-1; conditions: means ± SD
WT (LAI) = assay: microbe, parasite or virus in culture; conditions: Human immunodeficiency virus 1
Description: The inactivation activities of the compounds, alone or in combination, against different cell-free HIV-1 virions were measured as previously described ([Qi et al., 2017]). Briefly, different concentrations of compound or PBS were incubated with 800 TCID50 live virus for 1 h at 4°C. Subsequently, PEG-6000 was added to a final concentration of 3% and incubated for another 1 h at 4°C. The virus was collected by centrifugation of the mixture at 13,000 rpm at 4°C for 30 min. The supernatant was discarded, and the virus was resuspended in 3% PEG-6000 containing 10 mg/mL BSA and centrifuged at 13,000 rpm at 4°C for 30 min. The above procedure was repeated twice to completely remove residual compounds. Finally, the virus particles were resuspended in 100 μL of medium and added to 100 μL of 3 × 10^4 MT-2 or CEMx 174 5.25 M7 cells. After 3-4 days of incubation at 37°C, 50 μL of supernatant per well were collected and mixed with the same volume of 5% Triton X-100. The p24 antigen was detected by ELISA.

[2] = target: T1, 6HB formation between N36 and C34-biotin (Human immunodeficiency virus type 1 group M subtype B, UniProt P04578); assay: ELISA inhibition of six-helix bundle formation; type: biochemical, HIV-1; conditions: IC50, inhibition of 6HB formation between N36 and C34-biotin, peptides 0.5 μM final
T1 construct: preincubated with N36 peptide (2 μM, 50 μL) at 37°C for 1 h; purchased NIH AIDS Reagent Program
Description: An inhibitor (compound or C-peptide control) at graded concentrations was preincubated with N36 peptide (2 μM, 50 μL) at 37°C for 1 h. […] Subsequently, 50 μL of the mixture were added to the wells of the NC-1-coated plate, followed by incubation for 1 h. Then, HRP-labeled streptavidin and the substrate were added sequentially. The optical density at 450 nm was measured using a microplate reader (Tecan, Männedorf, Switzerland).

[3] = test system: T20-resistant virus V38E N42S; type: cell-based, HIV-1; conditions: means ± SD
HIV-1 Bal (R5) = assay: Inhibition of HIV-1 infection (p24 ELISA); type: cell-based; conditions: Human immunodeficiency virus 1; laboratory-adapted strain Bal, CEMx174 5.25 M7 cells, p24 ELISA; read-out: IC50, inhibition of HIV-1 Bal infection
WT (NL4-3 D36G) = type: cell-based, HIV-1; conditions: T20-resistant virus panel, means ± SD
92/UG/024 (D, X4) = assay: Inhibition of HIV-1 clinical virus infection; type: cell-based; conditions: Human immunodeficiency virus 1; HIV-1 clinical virus 92/UG/024 (D, X4); means ± SD
[4] = test system: T2635-resistant virus K90E; type: cell-based, HIV-1; conditions: inactivation of cell-free virions, means ± SD
96USSN20 (A, R5 and X4) = assay: Inhibition of HIV-1 clinical virus infection; type: cell-based; conditions: Human immunodeficiency virus 1; HIV-1 clinical virus 96USSN20 (A, R5 and X4); means ± SD
T20-resistant virus V38A [5] = type: cell-based, HIV-1; conditions: means ± SD
[6] = test system: T2635-resistant virus H3C; assay: microbe, parasite or virus in culture; type: cell-based, HIV-1; conditions: Human immunodeficiency virus 1
HIV-1 IIIB = assay: Inactivation of cell-free HIV-1 virions (PEG-6000 precipitation, p24 ELISA); type: cell-based; conditions: Human immunodeficiency virus 1, IIIB; cell-free virions, 1 h at 4°C, PEG-6000 precipitation; read-out: EC50, inactivation of HIV-1 IIIB
T20-resistant virus V38A [7] = type: cell-based, HIV-1; conditions: inactivation of cell-free virions, means ± SD
[8] = test system: T2635-resistant virus Q66R N126K; type: cell-based, HIV-1; conditions: inactivation of cell-free virions, means ± SD
HIV-1 IIIB (X4) = assay: Inhibition of HIV-1 infection (p24 ELISA); type: cell-based; conditions: Human immunodeficiency virus 1, MT2; laboratory-adapted strain IIIB, MT-2 cells, p24 ELISA; read-out: IC50, inhibition of HIV-1 IIIB infection
D36G (NL4-3 WT) = type: cell-based, HIV-1; conditions: inactivation of cell-free virions, T20-resistant panel D36G (NL4-3 WT); means ± SD
[9] = target: T2, 6HB formation between N36 and C34 (Human immunodeficiency virus type 1 group M subtype B, UniProt P04578); assay: N-PAGE inhibition of six-helix bundle formation; type: biochemical, HIV-1; conditions: peptides 40 μM final
T2 construct: purchased NIH AIDS Reagent Program
Description: The sample was mixed with Tris-glycine native sample buffer and then loaded onto the 18% Tris-glycine gel. Gel electrophoresis was carried out with 125 V constant voltage at room temperature for 3 h.

KNH1135 (A, R5) = assay: microbe, parasite or virus in culture; type: cell-based, HIV-1; conditions: Human immunodeficiency virus 1; inactivation of cell-free virions, clinical virus KNH1135 (A, R5); means ± SD
[10] = test system: T20-resistant virus V38A N42T; type: cell-based, HIV-1; conditions: inactivation of cell-free virions, means ± SD
[11] = test system: T2635-resistant virus Q66R N126K; type: cell-based, HIV-1; conditions: means ± SD
92/TH/009 (A/E, R5) = assay: Inactivation of cell-free HIV-1 clinical virus; type: cell-based; conditions: Human immunodeficiency virus 1, inactivation of cell-free virions, means ± SD
[12] = test system: T2635-resistant virus K90E N126K; type: cell-based, HIV-1; conditions: inactivation of cell-free virions, means ± SD
PBL288 (C, R5) = assay: Inactivation of cell-free HIV-1 clinical virus; type: cell-based; conditions: Human immunodeficiency virus 1, inactivation of cell-free virions, means ± SD
[13] = test system: T2635-resistant virus Q66R N113E; type: cell-based, HIV-1; conditions: inactivation of cell-free virions, means ± SD
[14] = test system: T20-resistant virus V38A N42D; type: cell-based, HIV-1; conditions: inactivation of cell-free virions, means ± SD
[15] = test system: T2635-resistant virus Q79E N126K; type: cell-based, HIV-1; conditions: inactivation of cell-free virions, means ± SD
[16] = test system: T20-resistant virus V38A N42T; type: cell-based, HIV-1; conditions: means ± SD
93/BR/020 (F, R5 and X4) = assay: Inhibition of HIV-1 clinical virus infection; type: cell-based; conditions: Human immunodeficiency virus 1; HIV-1 clinical virus 93/BR/020 (F, R5 and X4); means ± SD
[17] = test system: T2635-resistant virus K90E N126K; type: cell-based, HIV-1; conditions: means ± SD
[18] = test system: T2635-resistant virus N113E; type: cell-based, HIV-1; conditions: means ± SD
[19] = test system: T20-resistant virus V38E N42S; type: cell-based, HIV-1; conditions: inactivation of cell-free virions, means ± SD

T1 sequence (P04578 546-581): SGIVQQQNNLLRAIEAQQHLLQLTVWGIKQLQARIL
T2 sequence (P04578 546-581): as above

CC1(C)CC(NC(=O)C(=O)Nc2ccc(Cl)c(F)c2)CC(C)(C)N1C(=O)COc1ccc(CCN2C(=O)/C(=C/c3ccc(-c4ccc(Cl)c(C(=O)O)c4)o3)SC2=S)cc1 [FD028, (Z)-2-Chloro-5-(5-((3-(4-(2-(4-(2-((4-Chloro-3-Fluorophenyl)amino)-2-oxoacetamido)-2,2,6,6-Tetramethylpiperidin-1-yl)-2-oxoethoxy)phenethyl)-4-oxo-2-Thioxothiazolidin-5-ylidene)methyl)furan-2-yl)benzoic Acid]
IC50 [1]: 480 ± 110 nM
EC50 (WT (LAI)): 40 ± 10 nM
IC50 [2]: 2030 nM and ~2000 nM
IC50 [3]: 240 ± 20 nM
IC50 (HIV-1 Bal (R5)): 70 nM
IC50 (WT (NL4-3 D36G)): 170 ± 60 nM
IC50 (92/UG/024 (D, X4)): 1040 ± 160 nM
EC50 [4]: 550 ± 230 nM
IC50 (96USSN20 (A, R5 and X4)): 200 ± 10 nM
IC50 (T20-resistant virus V38A [5]): 1090 ± 130 nM
EC50 [6]: 1200 ± 140 nM
EC50 (HIV-1 IIIB): 710 nM
EC50 (T20-resistant virus V38A [7]): 780 ± 190 nM
EC50 [8]: 140 ± 70 nM
IC50 (HIV-1 IIIB (X4)): 330 nM
EC50 (D36G (NL4-3 WT)): 410 ± 20 nM
IC50 [9]: 100000 to 200000 nM
EC50 (KNH1135 (A, R5)): 1230 ± 320 nM
EC50 [10]: 320 ± 110 nM
IC50 [11]: 320 ± 80 nM
EC50 (92/TH/009 (A/E, R5)): 260 ± 60 nM
EC50 [12]: 490 ± 60 nM
EC50 (PBL288 (C, R5)): 540 ± 180 nM
EC50 [13]: 360 ± 30 nM
EC50 [14]: 630 ± 140 nM
EC50 [15]: 120 ± 20 nM
IC50 [16]: 950 ± 60 nM
IC50 (93/BR/020 (F, R5 and X4)): 380 ± 30 nM
IC50 [17]: 460 ± 110 nM
IC50 [18]: 570 ± 130 nM
EC50 [19]: 490 ± 30 nM
